In US20220031871A1, “ANTIBODIES FOR CHELATED RADIONUCLIDES AND CLEARING AGENTS” (Hoffmann-La Roche Inc., priority 2018, published 2022):
Marks after values point to notes of the source that are not given here.

Columns and labels:
Type in all cases: in vivo, SCID mice
BxPC3 tumors [1] = assay: Protocol 95: TCMC saturation, CA-to-antibody ratio, ^212Pb activity; settings: no CA, 24 h; for tumor accumulation: ±SD, n=3
Source text: In this study, nine different clearing agents based on dextran-500 were compared in terms of inhibition of ^212Pb-DOTAM association to tumors. More specifically, the experiment assessed the impact on tumor-associated radioactivity from i) TCMC saturation, ii) clearing agent-to-antibody ratio, and iii) production/purification method. In addition, the tumor uptake was compared after injection of 10 or 30 μCi of ^212Pb-DOTAM, without pretargeting or CA, to assess whether radioactivity saturation of the tumor was achieved already at the lower dose.
PRIT-0165 (100 μg per 100 μL) was administered i.v., followed three days later by dextran-500-based clearing reagents (10-170 μg per 100 μL) with varying TCMC substitution (10-100%). Groups J and K received PBS instead of clearing agent. Two hours later, mice were injected i.v. with 100 μL of the respective ^212Pb-DOTAM solutions (10 or 30 μCi).
Mice were sacrificed and necropsied 24 hours after injection of ^212Pb-DOTAM. Blood, bladder, spleen, kidneys, liver, lung, muscle, tail, and tumors were collected, weighed and measured for radioactivity content, and the % ID/g subsequently calculated.

BxPC3 tumors [2] = assay: Protocol 93a: efficacy and biodistribution of CEA-PRIT
Method: The bispecific antibodies were compared side-by-side in single- and double-cycle treatment regimens.
Groups A-G represent the treated mice that were followed up for assessment of efficacy, whereas groups H-L comprise mice that were sacrificed for biodistribution purposes 24 h after their last ^212Pb-DOTAM injection.
Solid xenografts were established by subcutaneous injection of cells in RPMI (BxPC3) or DMEM (LS174T) media mixed 1:1 with Corning® Matrigel® basement membrane matrix (growth factor reduced; cat No. 354230).
For protocol 93a, mice (age 7 weeks) were injected s.c. into the right flank with 5×10^6 BxPC3 cells (passage 33) in 100 μl RPMI/Matrigel. Twelve days after tumor cell injection, mice were sorted into experimental groups with an average tumor volume of 235 mm^3.
To minimize re-ingestion of radioactive urine/feces after treatment cycle 1, cages were changed 4 hours after ^212Pb-DOTAM administration, and then again at 24 h p.i. For cycle 2, mice were placed in cages with grilled floors for 4 hours after ^212Pb-DOTAM administration, before being transferred to new cages with standard bedding. All cages were then changed at 24 h p.i., as after cycle 1. The tumor development in the mice was followed through repeated calipering three times a week. If needed, additional calipering was performed in the gaps between scheduled measurements. The body weight of the animals was measured repeatedly in the same fashion. Mice whose tumor volume reached 3000 mm^3 were immediately euthanized. Other factors taken into account for euthanasia for ethical reasons were body weight loss, tumor status (e.g. ulceration) and general appearance of the animal. Wet food was provided to all animals starting from five days after the radioactive injection if mandated by an acute loss of body weight (collective or individual) due to radiation-induced toxicity, until all individuals had recovered sufficiently.
The following organs and tissues were harvested from groups A-G at the time of euthanasia: bladder, ovaries, liver, spleen, kidneys, femur (including bone marrow), colon, jejunum, stomach, and tumor. Unexpected or abnormal conditions were noted and photographed. Tissues were immediately put in 10% neutral buffered formalin (4° C.) and then transferred to PBS (4° C.) after 5 days. The formalin-fixed samples were then shipped to Roche Pharma Research and Early Development, Roche Innovation Center Basel, for further processing and analysis.
Mice in groups H, J, and L were sacrificed and necropsied 24 hours after their first and only injection of ^212Pb-DOTAM; groups I and K were sacrificed and necropsied 24 hours after their second ^212Pb-DOTAM injection. The following organs and tissues were harvested: blood, bladder, small intestine, colon, spleen, pancreas, kidneys, liver, lung, heart, femoral bone, muscle, tail, and tumor. Collected samples were weighed and measured for radioactivity, and the percent injected dose per gram of tissue (% ID/g) subsequently calculated, including corrections for decay and background.

s.c. BxPC3 tumors = assay: Protocol 146: ^212Pb-DOTAM distribution after PRIT, 5 min to 48 h
Method: Protocol 146 was designed to provide in vivo ^212Pb-DOTAM distribution data after PRIT for estimations of the absorbed radioactive dose to tumor and normal tissues, in SCID mice carrying s.c. BxPC3 tumors. The quenching of ^212Pb-DOTAM was performed using Ca (see example 34).
Pretargeting was performed by injection of CEA-DOTAM BsAb, followed 7 days later by the CA. After 24 hours, the ^212Pb-DOTAM was administered. Groups of mice were sacrificed at multiple time points from 5 minutes to 48 hours after the radioactive injection, and blood and organs harvested for radioactive measurement. […] Absorbed doses were finally calculated through established methods using the resulting time-activity curves. […]
Mice in group E and F were individually housed (i.e. one mouse per cage) in grilled-floor metabolic cages. Urine and feces were collected from each cage 2, 6, and 24 hours after the radioactive injection, and the individual samples subsequently measured for radioactivity. […]
Blood/serum was collected from all mice through retro-orbital bleeding before termination. After euthanasia, the following additional organs and tissues were harvested for radioactivity measurement and calculation of % ID/g: bladder, uterus, small intestine, colon, spleen, pancreas, kidneys, stomach, liver, lung, heart, brain, femoral bone, skin, muscle, abdominal fat, tail, and tumor.

[3] = labelled group 30 + 30 μCi 212Pb-DOTAM, multiple test level = 0.00238

NC(=O)CN1CCN(CC(N)=O)CCN(CC(N)=O)CCN(CC(N)=O)CC1.[212Pb+2] [^212Pb-DOTAM]
tumor-to-blood ratio (BxPC3 tumors [1]; 10 μCi ^212Pb-DOTAM): 2.26±0.25
tumor accumulation (BxPC3 tumors [1]; 10 μCi ^212Pb-DOTAM): 72.38±10.83 % ID/g
tumor-to-blood ratio (BxPC3 tumors [1]; 30 μCi ^212Pb-DOTAM): 3.20±0.20
tumor accumulation (BxPC3 tumors [1]; 30 μCi ^212Pb-DOTAM): 107.74±14.71 % ID/g
tumor growth inhibition (TGI) (BxPC3 tumors [2]; day 47, 30+30 μCi, compared with PBS): 15.8%
Pairwise Log-Rank Test, survival, p vs PRIT-0175 30 + 30 μCi (BxPC3 tumors [2]; [3]): 0.0032*
Pairwise Log-Rank Test, survival, p vs PRIT-0213 30 + 10 μCi (BxPC3 tumors [2]; [3]): 0.0001*
Pairwise Log-Rank Test, survival, p vs PRIT-0213 30 + 30 μCi (BxPC3 tumors [2]; [3]): 0.8474
Pairwise Log-Rank Test, survival, p vs PRIT-0214 30 + 10 μCi (BxPC3 tumors [2]; [3]): <.0001*
Pairwise Log-Rank Test, survival, p vs PRIT-0214 30 + 30 μCi (BxPC3 tumors [2]; [3]): 0.0685
Pairwise Log-Rank Test, survival, p vs Vehicle (PBS) (BxPC3 tumors [2]; [3]): 0.5271
Pairwise Wilcoxon Test, survival, p vs PRIT-0175 30 + 30 μCi (BxPC3 tumors [2]; [3]): 0.0042*
Pairwise Wilcoxon Test, survival, p vs PRIT-0213 30 + 10 μCi (BxPC3 tumors [2]; [3]): 0.0004*
Pairwise Wilcoxon Test, survival, p vs PRIT-0213 30 + 30 μCi (BxPC3 tumors [2]; [3]): 0.8704
Pairwise Wilcoxon Test, survival, p vs PRIT-0214 30 + 10 μCi (BxPC3 tumors [2]; [3]): 0.0002*
Pairwise Wilcoxon Test, survival, p vs PRIT-0214 30 + 30 μCi (BxPC3 tumors [2]; [3]): 0.0827
Pairwise Wilcoxon Test, survival, p vs Vehicle (PBS) (BxPC3 tumors [2]; [3]): 0.1439
accumulation of radioactivity in tumor (s.c. BxPC3 tumors; 5 minutes after injection, pretargeted by CEA-DOTAM BsAb, CA): 17 % ID/g
accumulation of radioactivity in tumor (s.c. BxPC3 tumors; by 6 hours p.i., remaining for at least 48 hours): over 40%
